Test results published in the kinase profiling compilation of Christmann-Franck et al. (2016).

Key:
Assay in all cases: KINOMEscan competition binding
Details in all cases: compound 10.0 µM
[1] = tested on: ABL1 (human), P00519 [E255K]
DYRK1A (human) = DYRK1A (human) (UniProt Q13627)
DYRK2 (human) = DYRK2 (human) (UniProt Q92630)
EGFR (human) = EGFR (human) (UniProt P00533)
[2] = tested on: EGFR (human), P00533 [P753S; 747-752 del]
ERBB3 (human) = ERBB3 (human) (UniProt P21860)
[3] = tested on: FLT3 (human), P36888 [K663Q]
GRK1 (human) = GRK1 (human) (UniProt Q15835)
GRK4 (human) = GRK4 (human) (UniProt P32298)
HIPK3 (human) = HIPK3 (human) (UniProt Q9H422)
HIPK4 (human) = HIPK4 (human) (UniProt Q8NE63)
ICK (human) = ICK (human) (UniProt Q9UPZ9)
IRAK1 (human) = IRAK1 (human) (UniProt P51617)
KIT (human) = KIT (human) (UniProt P10721)
MAK (human) = MAK (human) (UniProt P20794)
MAP3K13 (human) = MAP3K13 (human) (UniProt O43283)
MAP3K2 (human) = MAP3K2 (human) (UniProt Q9Y2U5)
MAST1 (human) = MAST1 (human) (UniProt Q9Y2H9)
MATK (human) = MATK (human) (UniProt P42679)
OXSR1 (human) = OXSR1 (human) (UniProt O95747)
PIK3C2G (human) = PIK3C2G (human) (UniProt O75747)
PIK3CG (human) = PIK3CG (human) (UniProt P48736)
ROCK1 (human) = ROCK1 (human) (UniProt Q13464)
STK38 (human) = STK38 (human) (UniProt Q15208)
STK39 (human) = STK39 (human) (UniProt Q9UEW8)
YSK4 (human) = YSK4 (human) (UniProt Q56UN5)
CDK4 CCND1 (human) = CDK4 CCND1 (human) (UniProt P11802+P24385)
CDK4 CCND3 (human) = CDK4 CCND3 (human) (UniProt P11802+P30281)
CRK2 (P.falciparum) = CRK2 (P.falciparum) (UniProt P61075)
CSNK1A1 (human) = CSNK1A1 (human) (UniProt P48729)
EIF2AK1 (human) = EIF2AK1 (human) (UniProt Q9BQI3)
LRRK2 (human) = LRRK2 (human) (UniProt Q5S007)
MAP2K7 (human) = MAP2K7 (human) (UniProt O14733)
NEK11 (human) = NEK11 (human) (UniProt Q8NG66)
NEK3 (human) = NEK3 (human) (UniProt P51956)
NEK4 (human) = NEK4 (human) (UniProt P51957)
PKN3 (M.tuberculosis) = PKN3 (M.tuberculosis) (UniProt Q6P5Z2)
STK32A (human) = STK32A (human) (UniProt Q8WU08)
TAOK2 (human) = TAOK2 (human) (UniProt Q9UL54)

MAST1 (human), sequence (Q9Y2H9 whole entry, looked up): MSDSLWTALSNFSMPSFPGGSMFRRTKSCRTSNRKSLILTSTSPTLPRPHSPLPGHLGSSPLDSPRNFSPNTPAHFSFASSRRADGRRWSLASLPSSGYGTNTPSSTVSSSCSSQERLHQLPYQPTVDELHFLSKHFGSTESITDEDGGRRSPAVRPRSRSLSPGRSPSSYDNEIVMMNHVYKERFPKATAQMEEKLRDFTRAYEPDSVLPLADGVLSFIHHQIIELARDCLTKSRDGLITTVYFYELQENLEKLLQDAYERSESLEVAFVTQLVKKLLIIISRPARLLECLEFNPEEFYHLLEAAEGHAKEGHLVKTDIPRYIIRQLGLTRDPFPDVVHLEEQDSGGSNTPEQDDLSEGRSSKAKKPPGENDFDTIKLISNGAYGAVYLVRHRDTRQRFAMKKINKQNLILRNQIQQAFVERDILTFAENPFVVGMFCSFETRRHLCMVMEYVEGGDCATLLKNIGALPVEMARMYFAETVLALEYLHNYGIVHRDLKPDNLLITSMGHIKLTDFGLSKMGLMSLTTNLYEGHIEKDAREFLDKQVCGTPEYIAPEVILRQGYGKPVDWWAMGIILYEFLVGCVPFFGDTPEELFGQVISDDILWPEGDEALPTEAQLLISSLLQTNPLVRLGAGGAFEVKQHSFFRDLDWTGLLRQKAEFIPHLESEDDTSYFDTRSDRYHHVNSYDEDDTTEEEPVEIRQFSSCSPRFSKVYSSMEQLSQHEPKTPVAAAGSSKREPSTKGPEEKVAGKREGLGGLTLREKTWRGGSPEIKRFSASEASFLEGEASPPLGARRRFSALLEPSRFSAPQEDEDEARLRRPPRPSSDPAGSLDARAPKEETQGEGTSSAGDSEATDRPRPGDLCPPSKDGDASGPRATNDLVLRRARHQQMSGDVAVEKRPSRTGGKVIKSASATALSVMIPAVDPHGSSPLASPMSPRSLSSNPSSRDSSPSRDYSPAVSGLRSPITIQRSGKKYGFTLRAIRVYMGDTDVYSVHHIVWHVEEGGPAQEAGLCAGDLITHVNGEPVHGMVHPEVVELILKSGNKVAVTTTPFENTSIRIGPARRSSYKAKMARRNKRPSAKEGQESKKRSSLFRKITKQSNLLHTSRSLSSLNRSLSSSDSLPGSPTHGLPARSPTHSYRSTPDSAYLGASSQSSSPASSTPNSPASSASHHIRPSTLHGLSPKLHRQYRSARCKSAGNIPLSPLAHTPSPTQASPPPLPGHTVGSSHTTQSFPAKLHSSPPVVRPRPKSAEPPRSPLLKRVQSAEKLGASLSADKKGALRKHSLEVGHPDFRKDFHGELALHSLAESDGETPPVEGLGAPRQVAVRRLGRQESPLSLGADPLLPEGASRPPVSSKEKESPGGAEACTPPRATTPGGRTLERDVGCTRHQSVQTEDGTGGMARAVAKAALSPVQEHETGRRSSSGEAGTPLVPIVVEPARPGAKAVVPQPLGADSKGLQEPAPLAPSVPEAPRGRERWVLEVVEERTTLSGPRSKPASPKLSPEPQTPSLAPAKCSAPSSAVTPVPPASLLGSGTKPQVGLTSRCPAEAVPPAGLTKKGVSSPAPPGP
ROCK1 (human), sequence (Q13464 whole entry, looked up): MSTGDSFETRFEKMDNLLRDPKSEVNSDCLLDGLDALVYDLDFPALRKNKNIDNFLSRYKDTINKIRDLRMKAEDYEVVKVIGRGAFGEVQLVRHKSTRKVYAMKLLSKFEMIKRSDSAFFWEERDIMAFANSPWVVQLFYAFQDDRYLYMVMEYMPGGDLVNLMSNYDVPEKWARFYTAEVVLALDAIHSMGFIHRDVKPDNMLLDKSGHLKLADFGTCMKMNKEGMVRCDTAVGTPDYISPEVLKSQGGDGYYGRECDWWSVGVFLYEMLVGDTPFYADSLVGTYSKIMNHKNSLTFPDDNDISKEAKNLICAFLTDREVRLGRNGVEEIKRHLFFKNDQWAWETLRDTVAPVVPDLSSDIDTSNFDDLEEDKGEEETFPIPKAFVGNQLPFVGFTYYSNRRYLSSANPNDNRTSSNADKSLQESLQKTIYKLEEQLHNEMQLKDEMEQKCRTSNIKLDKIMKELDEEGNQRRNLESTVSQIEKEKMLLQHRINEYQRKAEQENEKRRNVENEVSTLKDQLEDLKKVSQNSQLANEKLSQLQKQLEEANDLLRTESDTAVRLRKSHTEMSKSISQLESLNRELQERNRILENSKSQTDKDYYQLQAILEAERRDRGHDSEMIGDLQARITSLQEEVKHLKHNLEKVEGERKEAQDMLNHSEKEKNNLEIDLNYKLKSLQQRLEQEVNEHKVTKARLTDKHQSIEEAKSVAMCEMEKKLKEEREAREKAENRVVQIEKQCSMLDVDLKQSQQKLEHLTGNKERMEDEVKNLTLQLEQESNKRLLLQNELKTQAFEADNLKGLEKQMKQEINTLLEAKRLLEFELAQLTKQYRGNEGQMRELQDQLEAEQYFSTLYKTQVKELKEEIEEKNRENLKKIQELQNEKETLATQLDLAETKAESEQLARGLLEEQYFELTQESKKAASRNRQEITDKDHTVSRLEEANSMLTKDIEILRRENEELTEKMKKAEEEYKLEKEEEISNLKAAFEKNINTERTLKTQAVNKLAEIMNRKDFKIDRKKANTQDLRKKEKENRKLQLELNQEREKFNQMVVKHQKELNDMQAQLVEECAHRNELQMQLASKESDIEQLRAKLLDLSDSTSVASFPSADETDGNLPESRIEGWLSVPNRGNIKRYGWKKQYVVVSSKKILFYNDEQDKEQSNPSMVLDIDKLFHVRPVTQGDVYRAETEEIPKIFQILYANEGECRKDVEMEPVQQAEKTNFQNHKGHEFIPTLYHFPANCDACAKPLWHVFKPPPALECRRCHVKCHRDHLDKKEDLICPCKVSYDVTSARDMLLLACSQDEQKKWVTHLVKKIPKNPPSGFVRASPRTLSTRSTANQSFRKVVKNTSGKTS
KIT (human), sequence (P10721 whole entry, looked up): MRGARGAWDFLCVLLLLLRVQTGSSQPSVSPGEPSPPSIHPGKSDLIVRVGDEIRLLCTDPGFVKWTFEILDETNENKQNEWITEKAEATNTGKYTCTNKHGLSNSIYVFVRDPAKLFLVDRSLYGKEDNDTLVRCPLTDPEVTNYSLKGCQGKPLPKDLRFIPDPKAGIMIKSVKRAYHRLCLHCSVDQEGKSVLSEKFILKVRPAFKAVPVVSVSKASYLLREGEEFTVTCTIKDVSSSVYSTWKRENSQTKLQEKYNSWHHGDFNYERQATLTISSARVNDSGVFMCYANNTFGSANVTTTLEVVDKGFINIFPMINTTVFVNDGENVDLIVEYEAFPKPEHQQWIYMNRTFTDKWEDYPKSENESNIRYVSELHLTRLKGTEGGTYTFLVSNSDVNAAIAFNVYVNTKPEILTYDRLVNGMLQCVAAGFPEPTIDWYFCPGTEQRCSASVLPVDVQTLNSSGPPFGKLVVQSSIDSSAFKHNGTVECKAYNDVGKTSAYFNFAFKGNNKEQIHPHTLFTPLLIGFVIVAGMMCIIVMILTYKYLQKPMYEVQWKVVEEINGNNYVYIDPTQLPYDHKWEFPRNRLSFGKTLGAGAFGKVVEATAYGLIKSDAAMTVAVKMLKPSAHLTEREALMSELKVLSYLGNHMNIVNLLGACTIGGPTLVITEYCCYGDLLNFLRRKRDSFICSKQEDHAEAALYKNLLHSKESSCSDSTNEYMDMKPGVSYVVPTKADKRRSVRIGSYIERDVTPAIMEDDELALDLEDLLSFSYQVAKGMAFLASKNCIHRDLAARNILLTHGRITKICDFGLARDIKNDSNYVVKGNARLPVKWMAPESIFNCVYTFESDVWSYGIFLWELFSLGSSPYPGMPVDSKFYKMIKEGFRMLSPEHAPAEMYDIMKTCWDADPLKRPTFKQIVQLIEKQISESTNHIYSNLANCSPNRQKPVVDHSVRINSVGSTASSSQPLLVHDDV
PIK3CG (human), sequence (P48736 whole entry, looked up): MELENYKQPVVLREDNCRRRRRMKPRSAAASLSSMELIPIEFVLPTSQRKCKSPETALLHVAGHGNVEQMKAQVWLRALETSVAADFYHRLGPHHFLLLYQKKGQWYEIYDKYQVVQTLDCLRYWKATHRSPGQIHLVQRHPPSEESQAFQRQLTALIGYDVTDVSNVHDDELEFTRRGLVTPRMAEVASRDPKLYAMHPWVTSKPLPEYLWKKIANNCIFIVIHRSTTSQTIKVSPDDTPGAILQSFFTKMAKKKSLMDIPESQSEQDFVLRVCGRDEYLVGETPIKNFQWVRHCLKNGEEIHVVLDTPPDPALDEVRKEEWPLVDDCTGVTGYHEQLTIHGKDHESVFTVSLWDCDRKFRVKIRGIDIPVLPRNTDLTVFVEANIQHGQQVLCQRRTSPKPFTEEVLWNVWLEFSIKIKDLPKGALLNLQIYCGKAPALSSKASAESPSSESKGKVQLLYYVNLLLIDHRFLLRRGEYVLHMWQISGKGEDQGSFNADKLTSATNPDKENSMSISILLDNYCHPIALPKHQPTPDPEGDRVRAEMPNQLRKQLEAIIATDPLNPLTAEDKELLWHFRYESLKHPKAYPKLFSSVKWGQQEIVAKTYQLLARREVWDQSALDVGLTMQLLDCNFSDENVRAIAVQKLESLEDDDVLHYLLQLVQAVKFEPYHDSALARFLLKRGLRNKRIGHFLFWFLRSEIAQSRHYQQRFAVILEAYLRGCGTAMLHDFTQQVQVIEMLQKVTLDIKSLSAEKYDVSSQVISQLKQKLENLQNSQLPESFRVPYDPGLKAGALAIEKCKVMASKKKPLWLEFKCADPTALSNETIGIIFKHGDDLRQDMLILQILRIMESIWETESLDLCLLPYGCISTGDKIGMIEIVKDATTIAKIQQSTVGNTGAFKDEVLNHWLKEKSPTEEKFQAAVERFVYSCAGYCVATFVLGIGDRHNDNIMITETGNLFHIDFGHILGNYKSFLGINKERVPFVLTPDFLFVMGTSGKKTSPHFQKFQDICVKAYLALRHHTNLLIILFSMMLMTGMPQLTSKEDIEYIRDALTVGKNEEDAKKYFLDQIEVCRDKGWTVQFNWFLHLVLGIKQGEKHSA

SMILES | kinase still bound, per cent of control [1] [%] | kinase still bound, per cent of control (DYRK1A (human)) [%] | kinase still bound, per cent of control (DYRK2 (human)) [%] | kinase still bound, per cent of control (EGFR (human)) [%] | kinase still bound, per cent of control [2] [%] | kinase still bound, per cent of control (ERBB3 (human)) [%] | kinase still bound, per cent of control [3] [%] | kinase still bound, per cent of control (GRK1 (human)) [%] | kinase still bound, per cent of control (GRK4 (human)) [%] | kinase still bound, per cent of control (HIPK4 (human)) [%] | kinase still bound, per cent of control (ICK (human)) [%] | kinase still bound, per cent of control (IRAK1 (human)) [%] | kinase still bound, per cent of control (KIT (human)) [%] | kinase still bound, per cent of control (MAK (human)) [%] | kinase still bound, per cent of control (MAP3K13 (human)) [%] | kinase still bound, per cent of control (MAST1 (human)) [%] | kinase still bound, per cent of control (MATK (human)) [%] | kinase still bound, per cent of control (OXSR1 (human)) [%] | kinase still bound, per cent of control (PIK3C2G (human)) [%] | kinase still bound, per cent of control (PIK3CG (human)) [%] | other results
Cn1c(=O)n(-c2ccc(C(C)(C)C#N)cc2)c2c3cc(-c4cnc5ccccc5c4)ccc3ncc21 | 100 | 100 | 100 | 100 | 100 | 100 | 100 | 100 | 100 | 100 | 100 | 100 | 100 | 100 | 100 | 100 | 100 | 100 | 4.4 | 23 | kinase still bound, per cent of control (HIPK3 (human)): 100%; kinase still bound, per cent of control (MAP3K2 (human)): 100%; kinase still bound, per cent of control (ROCK1 (human)): 100%; kinase still bound, per cent of control (STK38 (human)): 100%; kinase still bound, per cent of control (STK39 (human)): 100%; kinase still bound, per cent of control (YSK4 (human)): 29%
C=CC(=O)Nc1cccc(Oc2nc(Nc3ccc(N4CCN(C)CC4)cc3OC)ncc2Cl)c1 | 100 |  |  | 0.1 | 0.4 |  | 1.1 |  |  |  |  |  | 34 |  |  |  |  |  |  | 100 | 
COc1cc(C(=O)NC2CCN(C)CC2)ccc1Nc1ncc2c(n1)N(C1CCCC1)CCC(=O)N2C(C)C | 100 | 100 | 100 | 100 | 100 | 100 | 100 | 100 | 100 | 100 | 100 | 100 | 100 | 100 | 100 | 100 | 100 | 100 | 100 | 100 | kinase still bound, per cent of control (HIPK3 (human)): 100%; kinase still bound, per cent of control (MAP3K2 (human)): 100%; kinase still bound, per cent of control (ROCK1 (human)): 100%; kinase still bound, per cent of control (STK38 (human)): 100%; kinase still bound, per cent of control (STK39 (human)): 100%; kinase still bound, per cent of control (YSK4 (human)): 100%
COc1cc(C(=O)NC2CCN(C)CC2)ccc1Nc1ncc2c(n1)N(C1CCCC1)C(C)CC(=O)N2C (stereo not drawn) | 100 |  |  | 100 | 100 |  | 100 |  |  |  |  |  | 100 |  |  |  |  |  |  | 100 | 
CC[C@@H]1C(=O)N(C)c2cnc(Nc3ccc(C(=O)NC4CCN(C)CC4)cc3OC)nc2N1C1CCCC1 | 100 |  |  |  |  |  | 100 |  |  |  |  |  | 100 |  |  |  |  |  |  | 100 | 
OCCCNc1cc(-c2ccnc(Nc3cccc(Cl)c3)n2)ccn1 | 100 | 7.8 | 100 | 100 | 100 | 100 | 100 | 100 | 100 | 14 | 2.2 | 100 | 100 | 4.6 | 100 | 100 | 100 | 100 | 100 | 100 | kinase still bound, per cent of control (HIPK3 (human)): 100%; kinase still bound, per cent of control (MAP3K2 (human)): 100%; kinase still bound, per cent of control (ROCK1 (human)): 100%; kinase still bound, per cent of control (STK38 (human)): 100%; kinase still bound, per cent of control (STK39 (human)): 100%; kinase still bound, per cent of control (YSK4 (human)): 100%
CCOc1cc2ncc(C#N)c(Nc3ccc(OCc4ccccn4)c(Cl)c3)c2cc1NC(=O)/C=C/CN(C)C | 100 | 99 | 64 |  |  | 0.1 |  | 84 | 68 | 42 | 100 | 65 | 80 | 100 | 86 | 100 | 71 | 54 | 100 | 91 | kinase still bound, per cent of control (CDK4 CCND1 (human)): 71%; kinase still bound, per cent of control (CDK4 CCND3 (human)): 78%; kinase still bound, per cent of control (CRK2 (P.falciparum)): 100%; kinase still bound, per cent of control (CSNK1A1 (human)): 100%; kinase still bound, per cent of control (EIF2AK1 (human)): 100%; kinase still bound, per cent of control (LRRK2 (human)): 99%; kinase still bound, per cent of control (MAP2K7 (human)): 49%; kinase still bound, per cent of control (NEK11 (human)): 64%; kinase still bound, per cent of control (NEK3 (human)): 41%; kinase still bound, per cent of control (NEK4 (human)): 100%; kinase still bound, per cent of control (PKN3 (M.tuberculosis)): 100%; kinase still bound, per cent of control (ROCK1 (human)): 100%; kinase still bound, per cent of control (STK32A (human)): 77%; kinase still bound, per cent of control (STK38 (human)): 81%; kinase still bound, per cent of control (STK39 (human)): 84%; kinase still bound, per cent of control (TAOK2 (human)): 92%
Cc1ccc(C(=O)Nc2cccc(C(F)(F)F)c2)cc1Nc1cncc(C(N)=O)c1 | 100 |  |  | 100 | 100 |  | 100 |  |  |  |  |  | 0 |  |  |  |  |  |  | 100 | 
